Assay results as given in patent EP0270316A2, “Topical compositions comprising 1-substituted imidazoles and NSAIDs for treatment of acne” (PFIZER INC., priority 1986, dated 1988).
Converted amounts (≈) assume the structure as drawn.

Assays:
[1] = human skin treated with radiolabeled tioconazole; frozen section autoradiography
Text: This property is readily measurable by methods known to those skilled in the art such as, for example, skin layer analysis which measures the amount of radiolabeled drug, e.g. tioconazole, in human skin treated with compositions containing the drug. [[…] et al., Brit. J. Dermatol. 115, Suppl. 31, 36-40 (1986)].

P. acnes = assay: microbe, parasite or virus in culture; conditions: Cutibacterium acnes, read-out: average minimum inhibitory concentration (MIC)

- localization in skin [1]: localized in the sebaceous follicle
- MIC (P. acnes): 5 µg/mL (≈ 12.9 µM)
Structure (SMILES): Clc1ccc(C(Cn2ccnc2)OCc2ccsc2Cl)c(Cl)c1 (centres unmarked) [Tioconazole, 1-[2-[(2-chloro-3-thienyl)methoxy]-2-(2,4-dichlorophenyl)ethyl]-1H-imidazole]
